The source of these data is US11267852B2, “Cell lines for screening odorant and aroma receptors” (Firmenich SA, priority 2015, dated 2022).

The target of test [1] is T1, OR1A1 (Homo sapiens, UniProt Q9P1Q5).
T1 construct: expressed in transfected cells
T1 sequence (Q9P1Q5 1-309): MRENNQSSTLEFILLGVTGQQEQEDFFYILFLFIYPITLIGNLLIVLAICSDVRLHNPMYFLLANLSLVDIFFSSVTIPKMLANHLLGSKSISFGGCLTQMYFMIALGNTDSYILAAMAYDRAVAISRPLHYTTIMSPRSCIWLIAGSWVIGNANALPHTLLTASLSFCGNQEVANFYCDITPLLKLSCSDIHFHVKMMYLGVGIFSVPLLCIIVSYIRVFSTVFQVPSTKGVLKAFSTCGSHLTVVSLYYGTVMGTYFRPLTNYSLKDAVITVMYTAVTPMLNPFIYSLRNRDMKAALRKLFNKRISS
The test is described as follows: cell-based odorant assay, cAMP increase (HTRF), OR1A1. Conditions: modified RTP1 HEK293T cell line compared to unmodified control cell line.

Test [2] relates to Olfr742. The test can be described thus: cell-based odorant assay, cAMP increase (HTRF), Olfr742. Set-up: species or system mouse. On the procedure: (§1) Functional dose-response experiments were performed in order to evaluate the level of functional enhancement of activity of odorant receptors in the modified cell line. Odorant receptors were modified at their N-terminus with short polypeptide sequences or tags [e.g. Flag (SEQ ID NO: 15), Rho (SEQ ID NO: 17; 20 first amino acids of the bovine rhodopsin receptor), or Lucy (SEQ ID NO: 19)], transiently expressed in WT or modified HEK293T cells, and stimulated with odorant compounds to determine the activity of the receptors. FIGS. 7 and 8) Using a cell-based odorant binding assay, the activity of Olfr741 (SEQ ID NO: 4) and Olfr742 (SEQ ID NO: 6) to indole was tested in the engineered RTP1 cell line and compared to HEK293T lacking RTP1 protein expression. Odorant receptors were transfected into both cell lines and exposed to increasing concentrations of indole. Odorant-induced activity was detected by measuring the level of cAMP increase in the cytosol using an HTRF based kit (CisBio, cAMP dynamic 2 kit, cat #62AM4PEJ). FIGS. 9 and 10) Using the same cell-based odorant binding assay, the activity of Olfr96 (SEQ ID NO: 8) and OR11A1 (SEQ ID NO: 10) to vulcanolide was tested in the engineered RTP1 expressing cell line and compared to HEK293T lacking RTP1 protein expression. The activity of Olfr740 (SEQ ID NO: 12) to indole was also tested in both cellular backgrounds. […]

Test [3] relates to Olfr741. The test can be described thus: cell-based odorant assay, cAMP increase (HTRF), Olfr741. Set-up: species or system mouse. On the procedure: as §1
For test [4], the system named is Olfr740. The test can be described thus: cell-based odorant assay, cAMP increase (HTRF), Olfr740. Set-up: species or system mouse. The procedure:
as §1

In test [5] the target is T2, OR11A1 (Homo sapiens, UniProt Q9GZK7).
T2 construct: expressed in transfected cells
T2 sequence (Q9GZK7 1-315): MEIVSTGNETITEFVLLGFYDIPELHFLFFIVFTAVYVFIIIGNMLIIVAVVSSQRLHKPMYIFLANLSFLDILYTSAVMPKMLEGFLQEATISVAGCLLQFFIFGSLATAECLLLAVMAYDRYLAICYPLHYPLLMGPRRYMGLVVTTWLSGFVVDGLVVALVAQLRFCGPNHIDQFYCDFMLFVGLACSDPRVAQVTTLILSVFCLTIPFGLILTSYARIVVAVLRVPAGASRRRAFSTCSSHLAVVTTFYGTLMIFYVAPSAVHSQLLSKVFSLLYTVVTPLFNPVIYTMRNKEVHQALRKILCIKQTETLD
The test is described as follows: cell-based odorant assay, cAMP increase (HTRF), OR11A1. On the procedure:
as §1

Test [6] concerns Olfr96. The test can be described thus: cell-based odorant assay, cAMP increase (HTRF), Olfr96. The arrangement: species or system mouse. The procedure: as §1
[7] abbreviates: modified RTP1 HEK293T cell line, increasing concentrations.
Where [8] appears, read: unmodified control HEK293T lacking RTP1 expression.

In the case of `C=C(C)C1CC=C(C)C(=O)C1` (stereo not drawn) [carvone-(−)], in test [1], the “receptor activity (cAMP increase), dose-response” value (“receptor activity (cAMP increase)” for short) is reported as “more potent dose-dependent increase of receptor activity”.
Take `c1ccc2[nH]ccc2c1` [indole]: the “receptor activity (cAMP increase)” value in test [2] (setting [7]) is given as “dose-dependent increase of receptor activity”; in test [2] (setting [8]), “not in the unmodified control cell line”; in test [3] (setting [7]) it was “dose-dependent increase of receptor activity”; in test [3] (setting [8]), “not in the unmodified control cell line”; in test [4] (setting [7]), “dose-dependent increase of receptor activity”; in test [4] (setting [8]) it was “not in the unmodified control cell line”.
`Cc1cc2c(cc1C=O)C(C)(C)[C@@H](C)[C@H](C)C2(C)C` [vulcanolide]: the “receptor activity (cAMP increase)” value in test [5] (setting [7]) is recorded as “dose-dependent increase of receptor activity”; in test [5] (setting [8]) it was “not in the unmodified control cell line”; in test [6] (setting [7]), “dose-dependent increase of receptor activity”; in test [6] (setting [8]) it was “not in the unmodified control cell line”.
